Experiment: Phase 1/2 first-in-human clinical study, safety evaluation (DLT, TEAE, SAE)
Conditions: for SAE Differentiation syndrome, CTCAE Grade: Related
[1] = cut-off, 40-300 mg BID, unrelated to study drug
[2] = patient US053A-0001, 80 mg BID Arm A, Not related, Recovered/Resolved
[3] = patient US154A-0002, 40 mg BID Arm B, Not related, Not recovered/Not resolved
[4] = patient US154A-0004, 100 mg BID Arm A, Not related, Recovered/Resolved
[5] = patient US185A-0001, 100 mg BID Arm A, Not related, Not recovered/Not resolved
[6] = patient US185A-0006, 120 mg BID Arm A, Not related, Fatal

Description: Arm A: Patients without azole antifungal treatment within 7 days (or 21 days for isavuconazole) of first dose of the present compound
Arm B: Patients receiving posaconazole, voriconazole, or fluconazole antifungal prophylaxis at enrollment
The safety of each dose level also was evaluated by the SRC, which was comprised of all investigators participating in the study and selected Sponsor study team members. The dose recommended by the BLRM method was treated as guidance and was integrated with a clinical assessment of toxicity information and review of other available data, including safety, PK, pharmacodynamic, and laboratory data.
When the Dose Limiting Toxicity (DLT) evaluation for each cohort was completed, the SRC determined a next dose level based on the DLT and other available data, including safety, PK, pharmacodynamic, and laboratory data with reference to the Bayesian Logistic Regression Model (BLRM) recommendation.
Dose escalation decisions were made after all patients in a dose level cohort have at least completed Cycle 1. All available data were presented along with the BLRM predictions for toxicity probabilities at the potential next dose levels. The SRC then determined the dose(s) for the next cohort(s).

C=C1C[C@@H]2CC[C@H]1[C@@H](C(=O)N1CCC3(CC1)CN(c1ncncc1Oc1ccc(F)cc1C(=O)N(C(C)C)C(C)C)C3)N2 [the present compound, 5-fluoro-2-[(4-{7-[(1S,3S,4R)-5-methylidene-2-azabicyclo[2.2.2]octane-3-carbonyl]-2,7-diazaspiro[3.5]nonan-2-yl}pyrimidin-5-yl)oxy]-N,N-di(propan-2-yl)benzamide]
Non-hematological TEAE regardless of causality: COVID-19 (N=57, Grade ≥3): 3 (5.3%) n (%)
Non-hematological TEAE regardless of causality: Constipation (N=57, Grade ≥3): 1 (1.8%) n (%)
Non-hematological TEAE regardless of causality: Cough (N=57, Grade ≥3): 0 (0.0%) n (%)
Non-hematological TEAE regardless of causality: Decreased appetite (N=57, Grade ≥3): 2 (3.5%) n (%)
Non-hematological TEAE regardless of causality: Diarrhoea (N=57, Grade ≥3): 0 (0.0%) n (%)
Non-hematological TEAE regardless of causality: Dizziness (N=57, Grade ≥3): 0 (0.0%) n (%)
Non-hematological TEAE regardless of causality: Dysgeusia (N=57, Grade ≥3): 0 (0.0%) n (%)
Non-hematological TEAE regardless of causality: Dyspnoea (N=57, Grade ≥3): 3 (5.3%) n (%)
Non-hematological TEAE regardless of causality: Electrocardiogram QT prolonged (N=57, Grade ≥3): 2 (3.5%) n (%)
Non-hematological TEAE regardless of causality: Epistaxis (N=57, Grade ≥3): 1 (1.8%) n (%)
Non-hematological TEAE regardless of causality: Fatigue (N=57, Grade ≥3): 1 (1.8%) n (%)
Non-hematological TEAE regardless of causality: Haemorrhage intracranial (N=57, Grade ≥3): 4 (7.0%) n (%)
Non-hematological TEAE regardless of causality: Headache (N=57, Grade ≥3): 0 (0.0%) n (%)
Non-hematological TEAE regardless of causality: Hypertension (N=57, Grade ≥3): 3 (5.3%) n (%)
Non-hematological TEAE regardless of causality: Hypotension (N=57, Grade ≥3): 2 (3.5%) n (%)
Non-hematological TEAE regardless of causality: Muscular weakness (N=57, Grade ≥3): 2 (3.5%) n (%)
Non-hematological TEAE regardless of causality: Myalgia (N=57, Grade ≥3): 0 (0.0%) n (%)
Non-hematological TEAE regardless of causality: Nausea (N=57, Grade ≥3): 4 (7.0%) n (%)
Non-hematological TEAE regardless of causality: Oedema peripheral (N=57, Grade ≥3): 0 (0.0%) n (%)
Non-hematological TEAE regardless of causality: Pain in extremity (N=57, Grade ≥3): 1 (1.8%) n (%)
Non-hematological TEAE regardless of causality: Pneumonia (N=57, Grade ≥3): 10 (17.5%) n (%)
Non-hematological TEAE regardless of causality: Pyrexia (N=57, Grade ≥3): 0 (0.0%) n (%)
Non-hematological TEAE regardless of causality: Sepsis (N=57, Grade ≥3): 10 (17.5%) n (%)
Non-hematological TEAE regardless of causality: Stomatitis (N=57, Grade ≥3): 0 (0.0%) n (%)
Non-hematological TEAE regardless of causality: Vomiting (N=57, Grade ≥3): 3 (5.3%) n (%)
Non-hematological laboratory change regardless of causality: ALT increase (N=57, Grade ≥3): 0 (0.0%) n (%)
Non-hematological laboratory change regardless of causality: AST increase (N=57, Grade ≥3): 1 (1.8%) n (%)
Non-hematological laboratory change regardless of causality: Hypertriglyceridemia (N=57, Grade ≥3): 4 (7.0%) n (%)
Non-hematological laboratory change regardless of causality: Hypocalcemia (N=57, Grade ≥3): 2 (3.5%) n (%)
Non-hematological laboratory change regardless of causality: Hypokalemia (N=57, Grade ≥3): 10 (17.2%) n (%)
Non-hematological laboratory change regardless of causality: Hypomagnesemia (N=57, Grade ≥3): 1 (1.8%) n (%)
Non-hematological laboratory change regardless of causality: Hyponatremia (N=57, Grade ≥3): 0 (0.0%) n (%)
Non-hematological laboratory change regardless of causality: Hypophosphatemia (N=57, Grade ≥3): 11 (19.3%) n (%)
Treatment related adverse event: Nausea (N=57, Grade ≥3): 1 (1.8%) n (%)
Treatment related adverse event: Vomiting (N=57, Grade ≥3): 1 (1.8%) n (%)
TEAE in ≥20% of patients regardless of causality: Fatigue (Total N=43, 40-200 mg BID): 10 (23.3%) n (%)
TEAE in ≥20% of patients regardless of causality: Hypokalaemia (Total N=43, 40-200 mg BID): 9 (20.9%) n (%)
TEAE in ≥20% of patients regardless of causality: Nausea (Total N=43, 40-200 mg BID): 15 (34.9%) n (%)
TEAE in ≥20% of patients regardless of causality: Vomiting (Total N=43, 40-200 mg BID): 10 (23.3%) n (%)
TEAE related to the present compound in ≥2 patients: Decreased appetite (Total N=43, 40-200 mg BID): 3 (7.0%) n (%)
TEAE related to the present compound in ≥2 patients: Nausea (Total N=43, 40-200 mg BID): 3 (7.0%) n (%)
TEAE related to the present compound in ≥2 patients: Vomiting (Total N=43, 40-200 mg BID): 4 (9.3%) n (%)
Possible differentiation syndrome (DS) (cut-off, 40-300 mg BID): 3 pts
TEAE assessed as related: nausea (cut-off, 40-300 mg BID): 12.1%
TEAE assessed as related: vomiting (cut-off, 40-300 mg BID): 15.5%
mortality from DS (cut-off, 40-300 mg BID): no mortality
Grade >3 TEAE: anemia [1]: 13.8%
Grade >3 TEAE: febrile neutropenia [1]: 15.5%
Grade >3 TEAE: platelet count decrease [1]: 12.1%
Grade >3 TEAE: pneumonia [1]: 17.2%
Grade >3 TEAE: sepsis [1]: 15.5%
DLT (cut-off, any dose level of 40-300 mg BID): No DLT
patients with related asymptomatic Grade 3 QT prolongation (cut-off, in the presence of other QT prolonging drugs): One
DLT (n=81, 40 mg BID to 300 mg BID): no DLT
Grade 3 nausea and vomiting (n=81, 40-300 mg BID): 1 patient
TEAE assessed as related: nausea (n=81, 40-300 mg BID): 12.3%
TEAE assessed as related: vomiting (n=81, 40-300 mg BID): 14.8%
TEAE regardless of relationship: decreased appetite (n=81, 40-300 mg BID): 21.0%
TEAE regardless of relationship: diarrhea (n=81, 40-300 mg BID): 21.0%
TEAE regardless of relationship: febrile neutropenia (n=81, 40-300 mg BID): 22.2%
TEAE regardless of relationship: hypokalemia (n=81, 40-300 mg BID): 21.0%
TEAE regardless of relationship: nausea (n=81, 40-300 mg BID): 37.0%
TEAE regardless of relationship: vomiting (n=81, 40-300 mg BID): 29.6%
grade ≥3 QTc prolongation related to the compound (n=81, 40-300 mg BID): no reports
SAE Sepsis, CTCAE Grade (patient JP002A-0001, 40 mg BID Arm A, Not related, Not recovered/Not resolved): 3
SAE Malignant neoplasm progression, CTCAE Grade (patient JP002A-0003, 60 mg BID Arm B, Not related, Fatal): 5
SAE Disease progression, CTCAE Grade (patient JP007A-0002, 60 mg BID Arm B, Not related, Not recovered/Not resolved): 3
SAE Sepsis, CTCAE Grade (patient JP007A-0002, 60 mg BID Arm B, Not related, Recovered/Resolved): 4
SAE Pneumonia, CTCAE Grade (patient JP028A-0001, 40 mg BID Arm B, Not related, Fatal): 5
SAE Pneumonia, CTCAE Grade (patient JP028A-0001, 40 mg BID Arm B, Not related, Recovered/Resolved (one continuous event with the Grade 5)): 4
SAE Haemorrhage intracranial, CTCAE Grade (patient US053A-0001, 80 mg BID Arm A, Not related, Fatal): 5
SAE Atrial fibrillation, CTCAE Grade [2]: 3
SAE Pneumonia, CTCAE Grade [2]: 3
SAE Respiratory failure, CTCAE Grade [2]: 4
SAE Differentiation syndrome, CTCAE Grade (patient US053A-0001, 80 mg BID Arm A, Drug interrupted, Recovered/Resolved): 4
SAE Differentiation syndrome, CTCAE Grade (patient US053A-0001, 80 mg BID Arm A, action Not applicable, Recovered/Resolved): 3
SAE Pneumonia, CTCAE Grade (patient US053A-0002, 40 mg BID Arm B, Not related, Recovered/Resolved): 3
SAE Disease progression, CTCAE Grade (patient US154A-0001, 80 mg BID Arm A, Not related, Fatal): 5
SAE Disease progression, CTCAE Grade (patient US154A-0002, 40 mg BID Arm B, Not related, Fatal): 5
SAE Bone pain, CTCAE Grade [3]: 3
SAE Malaise, CTCAE Grade [3]: 3
SAE Pyrexia, CTCAE Grade [4]: 1
SAE Respiratory failure, CTCAE Grade [4]: 2
SAE Leukocytosis, CTCAE Grade (patient US154A-0004, 100 mg BID Arm A, Not related, Recovering/Resolving): 4
SAE Leukocytosis, CTCAE Grade (patient US158A-0002, 120 mg BID Arm A, Not related, Recovered/Resolved): 1
SAE Acute myeloid leukaemia, CTCAE Grade (patient US185A-0001, 100 mg BID Arm A, Not related, Fatal): 5
SAE Cerebrovascular accident, CTCAE Grade [5]: 4
SAE Haemorrhage intracranial, CTCAE Grade [5]: 2
SAE Electrocardiogram QT prolonged, CTCAE Grade (patient US185A-0001, 100 mg BID Arm A, Not related, Recovered/Resolved, hypomagnesaemia at the time): 3
SAE Febrile neutropenia, CTCAE Grade (patient US185A-0002, 40 mg BID Arm B, Not related, Recovered/Resolved): 3
SAE Sepsis, CTCAE Grade (patient US185A-0002, 40 mg BID Arm B, Not related, Recovering/Resolving): 3
SAE Lung infection (pneumonia), CTCAE Grade [6]: 5
SAE Multiple organ dys function syndrome, CTCAE Grade [6]: 5
SAE Sepsis, CTCAE Grade [6]: 5
SAE Pneumonia fungal, CTCAE Grade (patient US210A-0001, 80 mg BID Arm A, Not related, Fatal): 5
SAE Rectal haemorrhage, CTCAE Grade (patient US210A-0001, 80 mg BID Arm A, Not related, Recovered/Resolved): 4
SAE Cellulitis, CTCAE Grade (patient US210A-0002, 120 mg BID Arm A, Not related, Recovered/Resolved): 3
safety profile between Arm A and Arm B (without vs with azole antifungals): not different

Reference: patent publication US20260248787A9, “MEDICAMENT FOR TREATING CANCER COMPRISING OPTICALLY ACTIVE AZABICYCLO RING DERIVATIVE” (Sumitomo Pharma Co., Ltd., priority 2023, published 2026)
